# Test results from patent publication US9718819B2 (Merck Sharp & Dohme Corp., priority 2012, dated 2017).
# Target: HIV-1 RT wild-type enzyme (Human immunodeficiency virus type 1 group M subtype B (isolate HXB2) (HIV-1), UniProt P04585)
# Experiment: HIV-1 reverse transcriptase inhibitory activity (RT polymerase assay)
# Type: biochemical
# Details: HIV-1 RT wild-type enzyme 83 pM; RNA-dependent DNA polymerase activity; read-out: IC50
# Experimental: Determination of HIV-1 Reverse Transcriptase Inhibitory Activity
# The heterodimeric nucleic acid substrate used in the HIV-1 RT polymerase reactions was generated by annealing the DNA primer, biotinylated pD500 (Sigma Aldrich, USA, 5′-biotin-ttg aaa tga ctg cgg tac ggc-3′), SEQ ID NO. 1 to the nucleotide RNA template t500 (derived from hepatitis C virus [HCV] sequence, IBA, Germany, 5′-[…]-3′), SEQ ID NO 2). […] The mixture was then preincubated on an orbital shaker for 30 min at room temperature in microtiter plates (Costar 3365, Corning, USA). A polymerization reaction was initiated by the addition of RNA template/pD500 DNA primer hybrid (16.6 nM final of RNA/DNA hybrid) and dNTPs (2 μM dATP, dGTP, dCTP and 66.6 nM Ru-dUTP (Meso Scale Discovery, USA)). Plate was sealed and incubated for 5-10 min at room temperature on an orbital shaker. Plate was then incubated for 90 min at 37° C. and reactions quenched with 60 μl quenching buffer (50 mM EDTA, 0.7% BSA, 0.7% Tween-20, 0.017% sodium azide in PBS). The resulting solution was incubated at room temperature for an additional 5 min and then 50 μL was transferred to pre-blocked Avidin plates (L15AA, Meso Scale Discovery). Each well of Avidin plate was blocked for 1 h at room temperature with 100 μL 5% BSA in PBS. Blocking solution was removed by tapping vigorously on filter paper to remove all excess liquid. Reaction on pre-blocked avidin plate proceeded for 60 min at room temperature and then contents removed by tapping vigorously on filter paper to remove all excess liquid. After washing plate 3 times with 150 μL 1×PBS and blotting dry between cycles, 150 μL 1× Read Buffer T (4× Read Buffer T, Meso Scale Discovery) was added and incubated for 5 min at room temperature before counting on a Sector Imager […] (Meso Scale Discovery). Titration curves and IC50 values were calculated using a four parameter logisitc fit according to standard procedures. Briefly, % Inhibition=100×((sample raw value)−(mean value of the low control or 0% inhibition))/((mean value of wells representing 100% inhbition)−(mean value of 0% inhbition)). In this assay, low control wells contain DMSO (0% inhbition) and 100% inhibition wells contain 1 μM efavirenz.
row,SMILES,IC50 [nM]
1,"Cc1ncn(Cc2cc(-c3ccc(F)cc3)c(=O)[nH]n2)c(=O)c1Oc1cc(Cl)cc(C#N)c1 [Example 169, 3-chloro-5-((1-((5-(4-fluorophenyl)-6-oxo-1,6-dihydropyridazin-3-yl)methyl)-4-methyl-6-oxo-1,6-dihydropyrimidin-5-yl)oxy)benzonitrile]",4
2,"COc1cccc(-c2cc(Cn3cnc(C(F)(F)F)c(Oc4cc(Cl)cc(C#N)c4)c3=O)n[nH]c2=O)c1F [Example 44, 3-chloro-5-((1-((5-(2-fluoro-3-methoxyphenyl)-6-oxo-1,6-dihydropyridazin-3-yl)methyl)-6-oxo-4-(trifluoromethyl)-1,6-dihydropyrimidin-5-yl)oxy)benzonitrile]",4
3,"N#Cc1cc(Oc2c(C(F)(F)F)ncn(Cc3ccc(=O)[nH]n3)c2=O)cc(OC(F)F)c1 [Example 163, 3-(difluoromethoxy)-5-(6-oxo-1-((6-oxo-1,6-dihydropyridazin-3-yl)methyl)-4-(trifluoromethyl)-1,6-dihydropyrimidin-5-yloxy)benzonitrile]",22
4,"N#Cc1cc(Cl)cc(Oc2c(C(F)(F)F)ncn(Cc3cc(-c4ccnc5[nH]ccc45)n[nH]c3=O)c2=O)c1 [Example 126, 3-chloro-5-((6-oxo-1-((3-oxo-6-(1H-pyrrolo[2,3-b]pyridin-4-yl)-2,3-dihydropyridazin-4-yl)methyl)-4-(trifluoromethyl)-1,6-dihydropyrimidin-5-yl)oxy)benzonitrile]",4
5,"N#Cc1cc(Cl)cc(Oc2c(C(F)(F)F)ncn(Cc3cc(-c4ccc(Cl)cn4)c(=O)[nH]n3)c2=O)c1 [Example 99, 3-chloro-5-((1-((5-(5-chloropyridin-2-yl)-6-oxo-1,6-dihydropyridazin-3-yl)methyl)-6-oxo-4-(trifluoromethyl)-1,6-dihydropyrimidin-5-yl)oxy)benzonitrile]",7
6,"Cc1ccc(-c2cc(Cn3cnc(C(F)(F)F)c(Oc4cc(Cl)cc(C#N)c4)c3=O)n[nH]c2=O)cn1 [Example 83, 3-chloro-5-((1-((5-(6-methylpyridin-3-yl)-6-oxo-1,6-dihydropyridazin-3-yl)methyl)-6-oxo-4-(trifluoromethyl)-1,6-dihydropyrimidin-5-yl)oxy)benzonitrile]",14
7,"N#Cc1cc(Cl)cc(Oc2c(C(F)(F)F)ncn(Cc3cc(-c4cn[nH]c4)c(=O)[nH]n3)c2=O)c1 [Example 71, 3-chloro-5-((6-oxo-1-((6-oxo-5-(1H-pyrazol-4-yl)-1,6-dihydropyridazin-3-yl)methyl)-4-(trifluoromethyl)-1,6-dihydropyrimidin-5-yl)oxy)benzonitrile]",5
8,"N#Cc1cc(Cl)cc(Oc2c(C(F)(F)F)ncn(Cc3cc(-c4ccn[nH]4)c(=O)[nH]n3)c2=O)c1 [Example 65, 3-chloro-5-((6-oxo-1-((6-oxo-5-(1H-pyrazol-5-yl)-1,6-dihydropyridazin-3-yl)methyl)-4-(trifluoromethyl)-1,6-dihydropyrimidin-5-yl)oxy)benzonitrile]",5
9,"N#Cc1ccc(-c2cc(Cn3cnc(C(F)(F)F)c(Oc4cc(Cl)cc(C#N)c4)c3=O)n[nH]c2=O)cc1 [Example 75, 3-chloro-5-((1-((5-(4-cyanophenyl)-6-oxo-1,6-dihydropyridazin-3-yl)methyl)-6-oxo-4-(trifluoromethyl)-1,6-dihydropyrimidin-5-yl)oxy)benzonitrile]",20
10,"Cc1ccc(-c2cc(Cn3cnc(C(F)(F)F)c(Oc4cc(Cl)cc(C#N)c4)c3=O)n[nH]c2=O)cc1 [Example 31, 3-chloro-5-((6-oxo-1-((6-oxo-5-(p-tolyl)-1,6-dihydropyridazin-3-yl)methyl)-4-(trifluoromethyl)-1,6-dihydropyrimidin-5-yl)oxy)benzonitrile]",5
11,"N#Cc1cc(Cl)cc(Oc2c(C(F)(F)F)ncn(Cc3n[nH]c(=O)c4cccnc34)c2=O)c1 [Example 1, 3-chloro-5-((6-oxo-1-((5-oxo-5,6-dihydropyrido[2,3-d]pyridazin-8-yl)methyl)-4-(trifluoromethyl)-1,6-dihydropyrimidin-5-yl)oxy)benzonitrile]",191
12,"Cn1cc(Cn2cnc(C(F)(F)F)c(Oc3cc(Cl)cc(C#N)c3)c2=O)ncc1=O [Example 3, 3-chloro-5-((1-((4-methyl-5-oxo-4,5-dihydropyrazin-2-yl)methyl)-6-oxo-4-(trifluoromethyl)-1,6-dihydropyrimidin-5-yl)oxy)benzonitrile]",33
13,"N#Cc1cc(Cl)cc(Oc2c(OC(F)F)ncn(Cc3ccc(=O)[nH]n3)c2=O)c1 [Example 162, 3-chloro-5-(4-(difluoromethoxy)-6-oxo-1-((6-oxo-1,6-dihydropyridazin-3-yl)methyl)-1,6-dihydropyrimidin-5-yloxy)benzonitrile]",79
14,"N#Cc1cc(Cl)cc(Oc2c(C(F)(F)F)ncn(Cc3cnc(N)[nH]c3=O)c2=O)c1 [Example 143, 3-((1-((2-amino-6-oxo-1,6-dihydropyrimidin-5-yl)methyl)-6-oxo-4-(trifluoromethyl)-1,6-dihydropyrimidin-5-yl)oxy)-5-chlorobenzonitrile]",7
15,"N#Cc1cc(Cl)cc(Oc2c(C(F)(F)F)ncn(Cc3cc(-c4cc(F)ccc4F)c(=O)[nH]n3)c2=O)c1 [Example 48, 3-chloro-5-((1-((5-(2,5-difluorophenyl)-6-oxo-1,6-dihydropyridazin-3-yl)methyl)-6-oxo-4-(trifluoromethyl)-1,6-dihydropyrimidin-5-yl)oxy)benzonitrile]",9
16,"N#Cc1cc(Cl)cc(Oc2c(C(F)(F)F)ncn(Cc3cc(O)c(=O)[nH]n3)c2=O)c1 [Example 107, 3-chloro-5-((1-((5-hydroxy-6-oxo-1,6-dihydropyridazin-3-yl)methyl)-6-oxo-4-(trifluoromethyl)-1,6-dihydropyrimidin-5-yl)oxy)benzonitrile]",223
17,"N#Cc1cc(Cl)cc(Oc2c(C(F)(F)F)ncn(Cc3cc(C(F)F)c(=O)[nH]n3)c2=O)c1 [Example 102, 3-chloro-5-((1-((5-(difluoromethyl)-6-oxo-1,6-dihydropyridazin-3-yl)methyl)-6-oxo-4-(trifluoromethyl)-1,6-dihydropyrimidin-5-yl)oxy)benzonitrile]",20
18,"CCS(=O)(=O)c1cc(Cn2cnc(C(F)(F)F)c(Oc3cc(Cl)cc(C#N)c3)c2=O)n[nH]c1=O [Example 97, 3-chloro-5-((1-((5-(ethylsulfonyl)-6-oxo-1,6-dihydropyridazin-3-yl)methyl)-6-oxo-4-(trifluoromethyl)-1,6-dihydropyrimidin-5-yl)oxy)benzonitrile]",247
19,"N#Cc1cccc(Oc2c(C(F)(F)F)ncn(Cc3cc(-c4ccc(F)cc4)c(=O)[nH]n3)c2=O)c1F [Example 165, 2-fluoro-3-((1-((5-(4-fluorophenyl)-6-oxo-1,6-dihydropyridazin-3-yl)methyl)-6-oxo-4-(trifluoromethyl)-1,6-dihydropyrimidin-5-yl)oxy)benzonitrile]",3
20,"N#Cc1cc(Cl)cc(Oc2c(C(F)(F)F)ncn(Cc3cc(Cl)c(=O)[nH]n3)c2=O)c1 [Example 91, 3-chloro-5-((1-((5-chloro-6-oxo-1,6-dihydropyridazin-3-yl)methyl)-6-oxo-4-(trifluoromethyl)-1,6-dihydropyrimidin-5-yl)oxy)benzonitrile]",6
21,"N#Cc1cc(Cl)cc(Oc2c(C(F)(F)F)ncn(Cc3cc(-c4cnc5ccccc5c4)c(=O)[nH]n3)c2=O)c1 [Example 88, 3-chloro-5-((6-oxo-1-((6-oxo-5-(quinolin-3-yl)-1,6-dihydropyridazin-3-yl)methyl)-4-(trifluoromethyl)-1,6-dihydropyrimidin-5-yl)oxy)benzonitrile]",17
22,N#Cc1cc(Cl)cc(Oc2c(C(F)(F)F)ncn(Cc3cc(-c4ccccc4)c(=O)[nH]n3)c2=O)c1 [Example 22],3
23,"N#Cc1cc(Cl)cc(Oc2c(C(F)(F)F)ncn(Cc3cc(-c4ccc(F)c(F)c4)n[nH]c3=O)c2=O)c1 [Example 121, 3-chloro-5-((1-((6-(3,4-difluorophenyl)-3-oxo-2,3-dihydropyridazin-4-yl)methyl)-6-oxo-4-(trifluoromethyl)-1,6-dihydropyrimidin-5-yl)oxy)benzonitrile]",5
24,"N#Cc1cc(Cl)cc(Oc2c(C(F)(F)F)ncn(Cc3cnc(O)cn3)c2=O)c1 [Example 2, 3-chloro-5-((1-((5-hydroxypyrazin-2-yl)methyl)-6-oxo-4-(trifluoromethyl)-1,6-dihydropyrimidin-5-yl)oxy)benzonitrile]",118
